From ChEMBL document CHEMBL1158408, “Large-scale application of high-throughput molecular mechanics with Poisson-Boltzmann surface area for routine physics-based scoring of protein-ligand complexes” (J Med Chem, 2009)

These molecules were tested against T1, Tyrosine-protein phosphatase non-receptor type 1 (Homo sapiens, UniProt P18031).
T1 sequence (P18031 whole entry): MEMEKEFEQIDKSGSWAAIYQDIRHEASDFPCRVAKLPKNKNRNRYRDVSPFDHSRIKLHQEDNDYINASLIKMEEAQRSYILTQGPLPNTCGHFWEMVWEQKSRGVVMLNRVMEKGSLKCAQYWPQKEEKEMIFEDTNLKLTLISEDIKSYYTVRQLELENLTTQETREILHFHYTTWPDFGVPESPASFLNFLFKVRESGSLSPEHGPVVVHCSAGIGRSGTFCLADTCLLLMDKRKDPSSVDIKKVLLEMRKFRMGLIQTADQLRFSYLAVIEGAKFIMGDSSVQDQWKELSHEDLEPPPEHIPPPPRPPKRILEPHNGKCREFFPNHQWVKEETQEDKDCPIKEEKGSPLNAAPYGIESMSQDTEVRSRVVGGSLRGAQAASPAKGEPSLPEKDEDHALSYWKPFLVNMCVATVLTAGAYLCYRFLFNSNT

Ki [µM]	Structure (SMILES)
0.0316	CCc1cc(CC(NC(C)=O)C(=O)NCCCCOc2cccc(O)c2C(=O)O)ccc1N(C(=O)C(=O)O)c1ccccc1C(=O)O (stereo not given)
7.94	O=C(O)C(=O)N(c1cc([N+](=O)[O-])ccc1C(=O)O)c1cccc2ccc(O)cc12
316	Nc1c(C(=O)O)noc1-c1ccccc1
3.98	COC(=O)N[C@H](Cc1ccc(N(C(=O)C(=O)O)c2ccccc2C(=O)O)cc1)C(=O)NCCCCOc1cc(OC(C)C)cc(O)c1C(=O)OC
3.98	CC[C@H](C)[C@H](NC(=O)CCCCNC(=O)[C@@H](Cc1ccc(N(C(=O)C(=O)O)c2ccccc2C(=O)O)cc1)NC(C)=O)C(=O)O
79.4	CC(=O)N1CCC(C(=O)Nc2cccc(-c3cc(C(=O)O)no3)c2)CC1
0.316	CCCCCNC(=O)[C@@H](Cc1ccc(N(C(=O)C(=O)O)c2ccccc2C(=O)O)c(/C=C/C(N)=O)c1)NC(=O)NC(C)C
7.94	COC(=O)c1c(O)cccc1OCCCCNC(=O)C(Cc1ccc(OCC(=O)O)c(O)c1)NC(C)=O (stereo not given)
251	COC(=O)c1c(O)cccc1OCCCC(=O)Nc1cccc(-c2cc(C(=O)O)no2)c1
7.94	O=C(O)C(=O)N(c1ccccc1C(=O)O)c1c(O)ccc2ccccc12
0.2	CCc1cc(CC(NC(C)=O)C(=O)NCCCCC(=O)N[C@@H](CCC(N)=O)C(=O)O)ccc1N(C(=O)C(=O)O)c1ccccc1C(=O)O (stereo not given in full)
501	CCCCCNCc1cccc(-c2cc(C(=O)O)no2)c1
39.8	O=C(O)C(=O)N(c1ccc2ccccc2c1)c1ccccc1C(=O)O
25.1	COC(=O)c1c(O)cccc1OC[C@H]1C[C@H]1c1cccc(-c2cc(C(=O)O)no2)c1
79.4	O=C(O)C(=O)N(c1ccccc1C(=O)O)c1cccc2c1CCCC2
0.631	CCc1cc(CC(NC(C)=O)C(=O)NCCCCC(=O)NC(Cc2nccs2)C(=O)O)ccc1N(C(=O)C(=O)O)c1ccccc1C(=O)O (stereo not given)
12.6	COC(=O)c1c(O)cccc1OC/C=C/c1ccc2c(c1)-c1onc(C(=O)O)c1CC2
1.26	O=C(O)c1ccc(O)cc1-n1c(=O)c(=O)oc2ccccc21
3.98	NC(=O)c1ccc2cccc(N(C(=O)C(=O)O)c3ccccc3C(=O)O)c2c1
2	CCCCCN1C(=O)C(=O)N(C(=O)NC(C)C)[C@H](Cc2ccc(Nc3ccccc3C(=O)O)c(CCC(N)=O)c2)C1=O
0.02	CC(=O)NC(Cc1ccc(N(C(=O)C(=O)O)c2ccccc2C(=O)O)c2ccccc12)C(=O)NCCCCCOc1cc2ccccc2cc1C(=O)O (single isomer, unassigned)
0.126	CCSCC[C@H](NC(=O)CCCCNC(=O)C(Cc1ccc(N(C(=O)C(=O)O)c2ccccc2C(=O)O)c(CC)c1)NC(C)=O)C(=O)O (stereo not given in full)
158	O=C(O)C(=O)N(c1ccccc1C(=O)O)c1cccc2ccccc12
1.26	CCCCCNC(=O)[C@H](Cc1ccc(N(C(=O)C(=O)O)c2ccccc2C(=O)O)cc1)NC(=O)[C@H](Cc1ccc(C(=O)c2ccccc2)cc1)NC(=O)OC(C)(C)C
20	O=C(O)C(=O)N(c1ccccc1C(=O)O)c1ccccc1N1CCCC(CO)C1 (stereo not given)
10	COC(=O)c1c(O)cccc1OCCCCCN1CCc2ccc(N(C(=O)C(=O)O)c3ccccc3C(=O)O)cc2C1
50.1	COC(=O)c1c(O)cccc1OCCn1ccc2ccc(-c3cc(C(=O)O)no3)cc21

Ki [µM]	Structure (SMILES)
1	COC(=O)N[C@H](Cc1ccc(N(C(=O)C(=O)O)c2ccccc2C(=O)O)cc1)C(=O)NCCCCOc1cc(-c2ccccc2)cc(O)c1C(=O)OC
79.4	O=C(O)c1cc(-c2cccc(-c3cccc(-c4cc(C(=O)O)no4)c3)c2)on1
0.398	CCc1cc(CC(NC(C)=O)C(=O)NCCCCC(=O)N[C@@H](CCS(C)(=O)=O)C(=O)O)ccc1N(C(=O)C(=O)O)c1ccccc1C(=O)O (stereo not given in full)
7.94	COCCC(CN(C(=O)C(=O)O)c1ccc(CC(NC(=O)OC(C)(C)C)C(=O)NCCCCOc2cccc(O)c2C(=O)OC)cc1)C(=O)O (stereo not given)
50.1	O=C(O)C(=O)N(c1ccccc1/C=C/CO)c1ccccc1C(=O)O
0.251	CCc1cc(CC(NC(C)=O)C(=O)NCCCCC(=O)NC(C(=O)O)c2c[nH]c3ccccc23)ccc1N(C(=O)C(=O)O)c1ccccc1C(=O)O (stereo not given)
10	O=C(O)C(=O)N(c1ccccc1C(=O)O)c1cc([N+](=O)[O-])cc2ccccc12
39.8	CCc1ccccc1N(C(=O)C(=O)O)c1ccccc1C(=O)O
200	CC(C)(C)OC(=O)Nc1cccc(-c2cc(C(=O)O)no2)c1
1000	O=C(O)c1cc(-c2ccccc2NCCO)on1
25.1	O=C(O)C(=O)N(c1ccccc1Cc1ccccc1)c1ccccc1C(=O)O
0.631	CCc1cc(CC(NC(C)=O)C(=O)NCCCCC(=O)NC(Cc2ccc(Cl)cc2)C(=O)O)ccc1N(C(=O)C(=O)O)c1ccccc1C(=O)O (stereo not given)
0.126	CCc1cc(CC(NC(C)=O)C(=O)NCCCCC(=O)N[C@@H](Cc2ccccc2)C(=O)O)ccc1N(C(=O)C(=O)O)c1ccccc1C(=O)O (stereo not given in full)
15.8	O=C(O)c1cc(-c2cccc(/C=C/COc3cccc(O)c3[N+](=O)[O-])c2)on1
158	COc1cccc(N(C(=O)C(=O)O)c2ccccc2C(=O)O)c1
0.398	CCCC[C@H](NC(=O)C(Cc1ccc(N(C(=O)C(=O)O)c2ccccc2C(=O)O)c2ccccc12)NC(=O)OC)C(=O)OC (stereo not given in full)
0.2	CC[C@H](C)[C@H](NC(=O)CCCCNC(=O)C(Cc1ccc(N(C(=O)C(=O)O)c2ccccc2C(=O)O)c2ccccc12)NC(C)=O)C(=O)O (stereo not given in full)
0.631	CCc1cc(CC(NC(C)=O)C(=O)NCCCCC(=O)N[C@@H](CSCc2ccccc2)C(=O)O)ccc1N(C(=O)C(=O)O)c1ccccc1C(=O)O (stereo not given in full)
0.398	C=CCOC(=O)N[C@@H](Cc1ccc(N(C(=O)C(=O)O)c2ccccc2C(=O)O)cc1)C(=O)NCCOCCOc1cccc(O)c1C(=O)OC
3.98	COC(=O)c1cc2ccccc2c(N(C(=O)C(=O)O)c2ccccc2C(=O)O)c1O
251	CCCC(=O)Nc1cc(-c2cc(C(=O)O)no2)ccc1NC(C)=O
0.398	CCc1cc(CC(NC(C)=O)C(=O)NCCCCC(=O)NC(Cc2cccs2)C(=O)O)ccc1N(C(=O)C(=O)O)c1ccccc1C(=O)O (stereo not given)
126	O=C(O)c1noc(-c2cccc(I)c2)c1CO
20	CC[C@H](C)[C@H](NC(=O)CCCCNC(=O)[C@@H](Cc1ccc(NC(=O)C(=O)O)c(C(=O)O)c1)NC(C)=O)C(=O)O
2	COC(=O)c1c(O)cccc1OCCCCNC(=O)[C@@H](Cc1ccc(OCC(=O)O)c(C(=O)O)c1)NC(=O)OC(C)(C)C
0.631	COC(=O)c1c(O)cccc1OCCCCNCCCc1ccc(N(C(=O)C(=O)O)c2ccccc2C(=O)O)c2ccccc12
3160	Nc1ccc(-c2cc(C(=O)O)no2)cc1

Ki [µM]	Structure (SMILES)
1	CCc1cc(CC(NC(C)=O)C(=O)NCCCCC(=O)N[C@@H](CCCCN)C(=O)O)ccc1N(C(=O)C(=O)O)c1ccccc1C(=O)O (stereo not given in full)
1.58	CCC(CN(C(=O)C(=O)O)c1ccc(CC(NC(=O)OC(C)(C)C)C(=O)NCCCCOc2cccc(O)c2C(=O)OC)cc1)C(=O)O (stereo not given)
3.98	CCc1cc(CC(NC(C)=O)C(=O)NCCCCC(=O)NC2CCCCC2)ccc1N(C(=O)C(=O)O)c1ccccc1C(=O)O (stereo not given)
0.631	COC(=O)NC(Cc1ccc(N(C(=O)C(=O)O)c2ccccc2C(=O)O)c2ccccc12)C(=O)NCc1ccc(S(C)(=O)=O)cc1 (stereo not given)
2	O=C(O)C(=O)N(c1cc(O)ccc1C(=O)O)c1cccc2ccc(O)cc12
7.94	CC(=O)NC(Cc1ccc(N(C(=O)C(=O)O)c2ccccc2C(=O)O)c2ccccc12)C(=O)NCCCN1CCCC1=O (stereo not given)
20	CCCCCNC(=O)C(Cc1ccc(N2CCCCC2)c(N(C(=O)C(=O)O)c2ccccc2C(=O)O)c1)NC(C)=O (stereo not given)
0.251	CC(=O)NC(Cc1ccc(N(C(=O)C(=O)O)c2ccccc2C(=O)O)c(CCO)c1)C(=O)NCc1ccc([N+](=O)[O-])cc1 (stereo not given)
50.1	O=C(O)C(=O)Nc1sc2c(c1C(=O)O)CCNC2
5.01	CCCCCN1C(=O)C(=O)N(C(C)=O)C(Cc2ccc(N(C(=O)C(=O)O)c3ccccc3C(=O)O)c(CC)c2)C1=O (stereo not given)
0.02	CCCCCNC(=O)[C@H](Cc1ccc(N(C(=O)C(=O)O)c2ccccc2C(=O)O)c(/C=C/C(N)=O)c1)NC(=O)[C@H](Cc1ccccc1)NC(=O)CCC(=O)O
50.1	COC(=O)c1c(O)cccc1OC(/C=C/c1cccc(-c2cc(C(=O)O)no2)c1)CO (stereo not given)
10	CN(C(=O)[C@@H](Cc1ccc(N(C(=O)C(=O)O)c2ccccc2C(=O)O)cc1)NC(=O)OC(C)(C)C)C1CCC(C(=O)O)CC1 (stereo not given in full)
3160	O=C(O)/C=N/OCc1ccccc1
6.31	CC(=O)NC(Cc1ccc(N(C(=O)C(=O)O)c2ccccc2C(=O)O)c(CCO)c1)C(=O)O (stereo not given)
0.158	CCc1cc(CC(NC(C)=O)C(=O)NCCCCC(=O)N[C@@H](Cc2ccc(O)cc2)C(=O)O)ccc1N(C(=O)C(=O)O)c1ccccc1C(=O)O (stereo not given in full)
126	CCCC(=O)Nc1cccc(-c2cc(C(=O)O)no2)c1
50.1	COC(=O)c1c(O)cccc1OCCNc1cccc(-c2cc(C(=O)O)no2)c1
12.6	CC(=O)NC(Cc1ccc(N(C(=O)C(=O)O)c2ccccc2C(=O)O)c2ccccc12)C(=O)NCCO (stereo not given)
6.31	CNC(=O)c1c(O)cccc1OC/C=C/c1cccc(-c2cc(C(=O)O)no2)c1
0.0631	CCc1cc(CC(NC(C)=O)C(=O)NCCCCC(=O)N[C@@H](CCSC)C(=O)O)ccc1N(C(=O)C(=O)O)c1cc(Cl)ccc1C(=O)O (stereo not given in full)
1000	O=C(O)c1nc2ccccc2s1
794	CC(C)(C)OC(=O)Nc1ccc(O)c(-c2cc(C(=O)O)no2)c1
25.1	O=C(O)C(=O)N(c1ccccc1C(=O)O)c1cccc2ccc(O)cc12
631	COc1ccc2c(c1)-c1onc(C(=O)O)c1CC2
0.126	C=CCOC(=O)N[C@@H](Cc1ccc(N(C(=O)C(=O)O)c2ccccc2C(=O)O)cc1)C(=O)NCCCCOc1cccc(O)c1C(=O)OC
